The test system of assay [1] is rat pituitary cells. As to the kind of experiment: Pituitary cell desensitization - intracellular calcium assay. The class given is cell-based. An excerpt: Thus, it appears that sustained release formulations would not provide the desired in vivo response. The experiment was designed so that changes in intracellular calcium concentration could be continuously monitored during successive exposures of the same cells to the indicated test substances.
Rat pituitary cells were isolated as described in Example 3 and plated onto poly-D-lysine-coated glass coverslips, one coverslip per well in 12-well plates, at a density of 3-4×10^5 cells per well. Assays were performed 3-4 days after plating. Cells were loaded with 5 μM fura-2 AM (Molecular Probes, Eugene, Oreg.), a calcium-sensitive fluorescent dye, by incubation for 30 min at room temperature. Fura-2 was dissolved in dimethylsulfoxide at 5 mM, then diluted into KRH buffer (115 mM NaCl, 5.4 mM KCl, 1.8 mM CaCl2, 1 mM MgCl2, 0.96 mM NaH2PO4, 25 mM HEPES, 6 mM glucose and 0.05% bovine serum albumin, adjusted to pH 7.3)
To assay changes in intracellular calcium concentration, a coverslip with attached cells was mounted in a perfusion chamber on the stage of an inverted microscope (Zeiss Axiovert 135 with epifluorescence, Geschaftsbereich Mikroscopie, Oberkochen, Germany) and continuously superfused at room temperature. After superfusion with KRH for 1-2 min, baseline fluorescence was recorded. Each test substance was applied for 2 min, followed by washout with KRH prior to stimulation with the next test substance. Up to 20 individual cells per field were selected for recording and were excited alternately at wavelengths of 380 nm or 340 nm (slit width 15 nm). Fluorescence emission at 510 nm was collected at 5 sec intervals by a low light CCD camera (Hamamatsu Photonics, Hamamatsu City, Japan), and digitized images for the two excitation wavelengths were analyzed using Videoprobe software (ETM Systems, Irvine, Calif.) to determine the 340 nm/380 nm fluorescence ratio for individual cells during each time interval. The 340 nm/380 nm fluorescence ratio is proportional to the concentration of intracellular calcium.
In general terms: A change in cytosolic calcium serves as a functional read-out for many receptors and channels.

The test system of assay [2] is rat pituitary cells. The assay is described as follows: Pituitary cell desensitization - growth hormone release assay. Type of assay: cell-based. As for the experimental part:
The experiment was designed so that cultures were exposed to a growth hormone secretagogue for 60 min, then growth hormone release was measured during a subsequent 15 min exposure to the same or different growth hormone secretagogue.
Anterior pituitary glands from male Wistar rats (150-175 g, Charles River, Laboratories, Wilmington, Mass.) were collected in Hank's Balanced Salt Solution (#14170, Life Technologies, Gaithersburg, Md.). Glands were minced with a scalpel, then incubated with bacterial protease (Type IX, EC3.4.24.4, #P-6141, Sigma Chemicals, Milwaukee, Wis.) at 10 U/ml to release individual cells. Cells were pelleted by centrifugation at 200×g for 15 min, then suspended in culture medium and plated at a density of 6.0-6.5×10^4 cells per 0.5 ml per well in 48-well tissue culture plates (#3848, Costar Corporation, Cambridge, Mass.). Culture medium consisted of D-MEM (Dulbecco's Modified Eagle Medium) with high glucose and sodium bicarbonate (#11965) supplemented with 10% heat-inactivated horse serum (#26050, Life Technologies, Gaithersburg, Md.), 2.5% fetal bovine serum (#16140, Life Technologies, Gaithersburg, Md.), 0.1 mM MEM non-essential amino acids (#11140, Life Technologies, Gaithersburg, Md.), 100 U/ml nystatin (#15340, Life Technologies, Gaithersburg, Md.) and 50 ug/ml gentamicin sulfate (#15750, Life Technologies, Gaithersburg, Md.). Cultures were maintained for 3-4 days in a humidified, 5% CO2/95% air incubator at 37° C. prior to performing assays for growth hormone release.
For growth hormone release assays, cultures were pre-equilibrated at 37° C. in pre-warmed release medium for 1 h in the presence of a growth hormone secretagogue or excipient (Pretreatment). Release medium consisted of Phenol Red-free D-MEM without bicarbonate (#23800, Life Technologies, Gaithersburg, Md.) supplemented with 25 mM N-[2-hydroxyethyl]piperazine-N′-[2-ethanesulfonic acid] (HEPES), 4.5 g/L glucose, 0.11 g/L sodium pyruvate, 0.584 g/L […] and 0.5% bovine serum albumin (#A-7888, Sigma Chemicals, Milwaukee, Wis.), adjusted to pH 7.4. After pretreatment, the medium was removed and replaced with fresh pre-warmed release medium containing a growth hormone secretagogue or excipient at 0.5 ml/well for 15 min (Treatment). Medium from the Treatment was collected, centrifuged to remove any cells, then assayed for growth hormone content by a conventional double-antibody radioimmunoassay using monkey anti-growth hormone antisera (NIDDK anti-rGH-S-5) and reference rat growth hormone standard (NIDDK-rGH-RP) from Dr. A. F. Parlow, Harbor-UCLA Medical Center, Torrance, Calif. Immune complexes were precipitated using goat anti-monkey immunoglobulin G (#55418, Cappel, Durham, N.C.).
Growth hormone secretagogue solutions were prepared at 1000 times the desired concentration and diluted into pre-warmed release medium immediately before use. Peptides such as His-D-Trp-Ala-Trp-Ala-Trp-D-Phe-Lys-NH2 (GHRP-6, #8061, Peninsula Laboratories, Belmont, Calif.) and rat growth hormone releasing factor (GHRH, #8068, Peninsula Laboratories, Belmont, Calif.) were dissolved at 100 μM in 4 mM acetic acid, 10% ethanol, 0.1% bovine serum albumin; other growth hormone secretagogues were dissolved at 5 mM in dimethyl sulfoxide.

Consider 3 compounds from patent US6641840B2, “Sustained release formulations for growth hormone secretagogues” (Pfizer Inc., priority 2000, dated 2003).

Where no end group is shown, it is not given here. [ ]: non-standard residue; d: D form.

Regarding `[Cl-].[K+]` [KCl, reference compound], in assay [1] (after re-exposure to Compound A), the “response of the same (refractory) cells” value is “remained responsive”.
With “GHRH: rat growth hormone releasing factor (GHRH, #8068, Peninsula Laboratories) (HADAIFTSSYRRILGQLYARKLLHEIMNRQQGERNQEQRSRFN; Somatoliberin; UniProt P09916 31-73, looked up) [reference compound]”, in assay [2] (pretreatment 100 nM GHRH 60 min, treatment none), the GH release is reported as 12.67 ± 3.31 ng/mL/15 min.
In the case of “H[dW]AWAW[dF]K-NH2 [GHRP-6, reference compound]”, the GH release in assay [2] (pretreatment 100 nM GHRP-6 60 min, treatment 100 nM GHRP-6 15 min) was 7.83 ± 0.98 ng/mL/15 min; in assay [2] (pretreatment 100 nM GHRP-6 60 min, treatment none) it was 9.06 ± 1.87 ng/mL/15 min; in assay [2] (pretreatment none, treatment 100 nM GHRP-6 15 min, mean ± SD, n = 4), 31.01 ± 8.46 ng/mL/15 min. The “cellular responses (intracellular calcium) on repeated exposure” value in assay [1] (successive 2 min exposures with washout) was “homologous desensitization”.
